In BindingDB's records for doi:10.1021/jm031121n (Novo Nordisk, 2004):

Assays:
[1] = target: Glycogen phosphorylase, muscle form (Oryctolagus cuniculus) (UniProt P00489); assay: Inhibitory activity against rabbit Muscle glycogen phosphorylase b
[2] = target: Glycogen phosphorylase, liver form (Sus scrofa); assay: In vitro inhibition of pig liver Glycogen phosphorylase A.
[3] = target: Glycogen phosphorylase, muscle form (Oryctolagus cuniculus) (UniProt P00489); assay: Inhibition of Rabbit muscle glycogen phosphorylase B.
[4] = Inhibitory activity against rabbit muscle glycogen phosphorylase a in the absence of AMP

Glycogen phosphorylase, muscle form (Oryctolagus cuniculus), sequence (P00489 whole entry, looked up): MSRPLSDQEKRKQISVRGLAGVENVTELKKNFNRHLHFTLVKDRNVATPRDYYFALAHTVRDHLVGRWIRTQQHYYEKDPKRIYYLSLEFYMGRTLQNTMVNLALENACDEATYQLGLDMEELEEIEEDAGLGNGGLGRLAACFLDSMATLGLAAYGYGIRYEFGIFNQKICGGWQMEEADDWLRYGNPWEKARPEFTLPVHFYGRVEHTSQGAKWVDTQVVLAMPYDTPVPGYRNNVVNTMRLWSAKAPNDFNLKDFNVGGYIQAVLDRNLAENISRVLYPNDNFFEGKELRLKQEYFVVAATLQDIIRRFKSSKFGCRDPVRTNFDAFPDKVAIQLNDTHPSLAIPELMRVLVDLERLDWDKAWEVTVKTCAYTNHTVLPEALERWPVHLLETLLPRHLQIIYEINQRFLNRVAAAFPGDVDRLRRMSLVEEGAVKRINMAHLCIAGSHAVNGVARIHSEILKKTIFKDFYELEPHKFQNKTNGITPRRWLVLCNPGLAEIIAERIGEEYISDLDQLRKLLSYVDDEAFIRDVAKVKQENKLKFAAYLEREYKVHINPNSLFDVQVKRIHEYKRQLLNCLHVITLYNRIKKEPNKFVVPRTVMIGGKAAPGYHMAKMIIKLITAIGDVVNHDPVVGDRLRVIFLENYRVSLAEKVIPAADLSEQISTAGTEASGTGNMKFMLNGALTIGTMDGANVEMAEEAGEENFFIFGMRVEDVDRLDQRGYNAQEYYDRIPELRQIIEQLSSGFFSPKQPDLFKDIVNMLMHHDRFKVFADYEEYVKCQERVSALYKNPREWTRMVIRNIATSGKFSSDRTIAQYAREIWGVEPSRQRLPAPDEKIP

| SMILES | IC50 [2] [µM] | other results |
| --- | --- | --- |
| O=C1NC(=O)[C@]2(C[C@H](CO)[C@@H](O)[C@H](O)[C@H]2O)N1 [(6S,7S,8R,9R)-6,7,8-Trihydroxy-9-hydroxymethyl-1,3-diaza-spiro[4.5]decane-2,4-dione] | – | Ki [1]: 3 µM |
| Cc1ccc(Oc2ccc(C(=O)O)c(C(=O)O)c2)c(NC(=O)c2cccc([N+](=O)[O-])c2)c1 [4-[4-Methyl-2-(3-nitro-benzoylamino)-phenoxy]-phthalic acid] | 0.45 | – |
| O=C(Nc1cc(C(F)(F)F)ccc1Oc1ccc(C(=O)O)c(C(=O)O)c1)c1cccc([N+](=O)[O-])c1 [4-[2-(3-Nitro-benzoylamino)-4-trifluoromethyl-phenoxy]-phthalic acid] | 1.8 | – |
| Cc1cc(Oc2ccc(C(=O)O)c(C(=O)O)c2)c(NC(=O)c2cccc([N+](=O)[O-])c2)cc1NC(=O)c1cccc([N+](=O)[O-])c1 [4-[5-Methyl-2,4-bis-(3-nitro-benzoylamino)-phenoxy]-phthalic acid] | 0.7 | – |
| O=C(Nc1ccccc1Oc1ccc(C(=O)O)c(C(=O)O)c1)c1ccc(Cl)cc1 [4-[2-(4-Chloro-benzoylamino)-phenoxy]-phthalic acid] | > 200 | – |
| O=C(O)c1cccc(C(=O)Nc2ccccc2Oc2ccc(C(=O)O)c(C(=O)O)c2)c1 [4-[2-(3-Carboxy-benzoylamino)-phenoxy]-phthalic acid] | > 100 | IC50 [3]: > 200 µM |
| CC(=O)c1cccc(C(=O)Nc2ccccc2Oc2ccc(C(=O)O)c(C(=O)O)c2)c1 [4-[2-(3-Acetyl-benzoylamino)-phenoxy]-phthalic acid] | – | IC50 [3]: 50 µM |
| COc1cccc(C(=O)Nc2ccccc2Oc2ccc(C(=O)O)c(C(=O)O)c2)c1 [4-[2-(3-Methoxy-benzoylamino)-phenoxy]-phthalic acid] | – | IC50 [3]: 50 µM |
| CCN1C(C)=C(C(=O)OC(C)C)[C@@H](c2ccccc2)C(C(=O)O)=C1C(=O)O [(S)-1-Ethyl-6-methyl-4-phenyl-1,4-dihydro-pyridine-2,3,5-tricarboxylic acid 5-isopropyl ester] | – | Ki [4]: 0.011 µM |
| Cc1ccc(C(=O)Nc2ccccc2Oc2ccc(C(=O)O)c(C(=O)O)c2)cc1 [4-[2-(4-Methyl-benzoylamino)-phenoxy]-phthalic acid] | > 30 | – |
| CC(=O)Nc1ccc(Oc2ccc(C(=O)O)c(C(=O)O)c2)c(NC(=O)c2cccc([N+](=O)[O-])c2)c1 [4-[4-Acetylamino-2-(3-nitro-benzoylamino)-phenoxy]-phthalic acid] | 0.14 | – |
| O=C(Nc1cc(Br)ccc1Oc1ccc(C(=O)O)c(C(=O)O)c1)c1cccc([N+](=O)[O-])c1 [4-[4-Bromo-2-(3-nitro-benzoylamino)-phenoxy]-phthalic acid] | 0.25 | – |
| O=C(Nc1ccc(Oc2ccc(C(=O)O)c(C(=O)O)c2)c(NC(=O)c2cccc([N+](=O)[O-])c2)c1)c1ccccc1 [4-[4-Benzoylamino-2-(3-nitro-benzoylamino)-phenoxy]-phthalic acid] | 0.12 | – |
| N#Cc1ccc(Oc2ccc(C(=O)O)c(C(=O)O)c2)c(NC(=O)c2cccc([N+](=O)[O-])c2)c1 [4-[4-Cyano-2-(3-nitro-benzoylamino)-phenoxy]-phthalic acid] | 2.2 | – |
| O=C(Nc1ccccc1Oc1ccc(C(=O)O)c(C(=O)O)c1)c1ccccc1 [4-(2-Benzoylamino-phenoxy)-phthalic acid] | > 200 | – |
| O=C(Nc1cc(F)ccc1Oc1ccc(C(=O)O)c(C(=O)O)c1)c1cccc([N+](=O)[O-])c1 [4-[4-Fluoro-2-(3-nitro-benzoylamino)-phenoxy]-phthalic acid] | 2.5 | – |
| O=C(Nc1ccccc1Oc1ccc(C(=O)O)c(C(=O)O)c1)c1ccc(Cl)c(Cl)c1 [4-[2-(3,4-Dichloro-benzoylamino)-phenoxy]-phthalic acid] | > 50 | – |
